One data set relates to abdominal fat. Put plainly: randomized placebo-controlled trial for reduction of abdominal fat. The format is in vivo, human. As to conditions: compared to vehicle alone. The source says: The following experiment describes a randomized, placebo-controlled, double-blind trial in human subjects to test whether the safety and efficacy of a PFPRA pharmaceutical composition for reduction of abdominal fat. The composition can be, for example, as described in Example 1, wherein the PFPRA is latanoprost. Alternatively, the PFPRA can be tafluprost. Other alternatives within the scope of the invention can also be used. Eligible subjects (for example, n=60) with excess anterior abdominal fat are entered into a randomized double-blind study. […] Subjects are instructed to apply, once a day, a metered dose, for example, of 2 ml over a 200 cm^2 application area on the anterior abdomen. The application area is standardized, for example, by use of a template that is centered on the umbilicus. Serial clinical assessments, subjective patient assessments, photographs, and magnetic resonance imaging (MRI) scans are performed prior to the first dose and then, for example, at 6 and 12 weeks. Treatment continues, for example, for a total of 12 weeks.

Data set [1] in a line: skin permeation ex vivo, Franz-type diffusion cell. The format is in vitro ADME, human. As to conditions: free acid recovered in dermis and receptor fluid. The protocol: Skin permeation studies were conducted with various formulations of latanoprost, ex vivo, on fresh human skin. Fresh human skin was obtained from live donors undergoing abdominoplasty and mounted on a standard (Franz-type) diffusion cell apparatus. All test articles contained 0.8% (weight/weight) of latanoprost. Each test article (8 mg) was uniformly applied to a skin surface of 0.8 cm^2. All formulations were tested on skin from at least two different donors. Treated skin was left open to the atmosphere to simulate clinical conditions. Receptor fluid flowed continuously over 24 hours and was collected in fractions. The amount of active drug metabolite (latanoprost free acid) in these fractions was determined by Liquid Chromatography/Tandem Mass Spectrometry. The following amounts of drug were recovered from receptor fluid over 24 hours:
Skin permeation studies were conducted with various formulations of latanoprost 0.5%, ex vivo, on fresh human skin, as described in the foregoing example. All formulations comprised ethanol (70%) and oleic acid (1.5%, 3% or 4.5%) with the remainder essentially as propylene glycol (28.5%, 27% or 25.5%, respectively). All studies were run in duplicate.

The results in this text go back to US10869874B2, “Methods and compositions for topical delivery of prostaglandins to subcutaneous fat” (Topokine Therapeutics, Inc., priority 2013, dated 2020).

SMILES strings stand for the structures.

As to `CC(C)OC(=O)CCC/C=C\C[C@@H]1[C@@H](CC[C@@H](O)CCc2ccccc2)[C@H](O)C[C@@H]1O` [latanoprost], in the data set on abdominal fat, the “satisfaction with cosmetic appearance” value is recorded as “more satisfied with their cosmetic appearance”. The “conversion of prodrug in skin samples” value in data set [1] is reported as “converted (hydrolyzed) to the active metabolite, latanoprost free acid”.
As to `CC(C)OC(=O)CCC/C=C\C[C@@H]1[C@@H](/C=C/C(F)(F)COc2ccccc2)[C@H](O)C[C@@H]1O` [tafluprost], the “satisfaction with cosmetic appearance” value with abdominal fat is reported as “more satisfied with their cosmetic appearance”.
